Test results from patent US4540664A, “Method of saccharifying cellulose” (The United States of America as represented by the United …, priority 1983, dated 1985).

Tested on: extracellular cellulase of Clostridium thermocellum ATTC 27405
Assay: Saccharification of Avicel by desalted cellulase, followed by the decrease in turbidity at 660 nm
Format: biochemical
Settings: Avicel substrate
Protocol: In these experiments 50 μg of the protein that had been desalted by passage through the gel filtration resin was incubated with 3 mg of the substrate in 3 ml of substrate buffer. The buffer was 0.1M succinic acid/NaOH with a pH of 5.5. The suspension was diluted to 5 ml. No Ca^2+ was added. The cellulase activity was monitored by the decrease in turbidity of the suspension measured at 660 nm. By this method, the turbidity of the suspension decreases as more cellulose is saccharified, and less light is absorbed.
The reaction conditions were the same as for the samples used in FIG. 1 except that each sample included 5 mM DTT and either no additions, 10 mM EDTA, 7 mM CaCl2, or 7 mM MgCl2.

| effect of DTT on rate of saccharification (5 mM DTT, no Ca2+ added, pH 5.5 (FIG. 1)) | Compound | effect of DTT on extent and duration of saccharification (2 mM DTT, no Ca2+ added, pH 5.5, compared with no reducing agent (FIG. 1)) | effect of EDTA on saccharification (10 mM EDTA, 5 mM DTT, 0.1M succinic acid/NaOH pH 5.5 (FIG. 2)) |
| --- | --- | --- | --- |
| rate of saccharification is greater | O[C@H](CS)[C@H](O)CS (racemic) [DTT, dithiothreitol] | saccharification continues over 90 hours and is much more extensive |  |
|  | O=C(O)CN(CCN(CC(=O)O)CC(=O)O)CC(=O)O [EDTA] |  | completely inhibits saccharification |
